The subject of data set [1] is rats. Put plainly: toxic effects in rats when administered via the oral route. The format is in vivo. An excerpt: As mentioned above, rats are particularly troublesome vermin. […] For example, Tretazicar is particularly toxic towards rats compared to other rodents. […] This feature is believed to help prevent bait-shyness.
Another data set relates to rat. Particulars: administered intraperitoneally; cited from earlier work.
Another data set concerns mouse. To be noted: cited from earlier work.
The conditions of data set [2]: dogs, packed into a gelatin capsule; cited from earlier work.
A further data set has as its system Walker tumour. To be noted: specific rat tumour ('Walker tumour'); cited from earlier work.
The subject of the next data set is variety of other tumours. To be noted: cited from earlier work.
For data set [3] the following is noted: human clinical oncology studies; cited from earlier work.
The test system of data set [4] is rats. To be noted: cited from earlier work.
The subject of the next data set is human cells. To be noted: cited from earlier work.

The term LD50 denotes the dose expected to kill half of the subjects tested. With `NC(=O)c1cc(N2CC2)c([N+](=O)[O-])cc1[N+](=O)[O-]` [Tretazicar, 5-(aziridin-1-yl)-2,4-dinitrobenzarnide], the “onset of toxic effects” value in the data set with rats [1] was “delayed”. The LD50 in the data set on rat is 28 mg/kg; in the data set with mouse, 220 mg/kg. Moreover, the oral bioavailability entry in data set [2] is recorded as “about 40%”. The “effect on Walker tumour” value in the data set with Walker tumour is recorded as “capable of eradicating”. In addition, the “effect on other tumours” value in the data set with variety of other tumours is listed as “little or no effect”. Moreover, the therapeutic benefit entry in data set [3] was “no therapeutic benefit”. Besides, in the data set on rats [4], the toxicity entry is given as “toxic to rats”. In addition, the “sensitivity of cells to the effects of the compound” value with human cells is reported as “insensitive”.
